# Legend:
# [1] = Effect of concentration on the stability of the solution (purity over time); conditions: in water at 25° C.
# [2] = Effect of temperature (and pH) on the stability of the solution (purity); format: physicochemical; conditions: 7% solution in water
structure (smiles),measurement,setting,value
CCN(CC)CCOC(=O)CCc1ccc2cc(OC)ccc2c1.Cl [2-(diethylamino)ethyl 3-(6-methoxy-2-naphthyl)propionate•HCl],Purity at Day 3,[1]; 0.01 wt %,84.7%
same,Purity at Day 7,[1]; 0.01 wt %,73.9%
same,Purity at Day 14,[1]; 0.01 wt %,62.3%
same,Purity at Day 21,[1]; 0.01 wt %,53.9%
same,Purity at Day 28,[1]; 0.01 wt %,45.9%
same,Purity at hr 0,[1]; 0.01 wt %,97.7%
same,Purity at Day 3,[1]; 0.1 wt %,96.7%
same,Purity at Day 7,[1]; 0.1 wt %,95.5%
same,Purity at Day 14,[1]; 0.1 wt %,91.1%
same,Purity at Day 21,[1]; 0.1 wt %,87.2%
same,Purity at Day 28,[1]; 0.1 wt %,83.8%
same,Purity at hr 0,[1]; 0.1 wt %,97.9%
same,Purity at Day 3,[1]; 1 wt %,97.0%
same,Purity at Day 7,[1]; 1 wt %,96.0%
same,Purity at Day 14,[1]; 1 wt %,94.0%
same,Purity at Day 21,[1]; 1 wt %,92.3%
same,Purity at Day 28,[1]; 1 wt %,90.9%
same,Purity at hr 0,[1]; 1 wt %,98.1%
same,Purity at Day 3,[1]; 3 wt %,97.7%
same,Purity at Day 7,[1]; 3 wt %,97.0%
same,Purity at Day 14,[1]; 3 wt %,96.0%
same,Purity at Day 21,[1]; 3 wt %,94.8%
same,Purity at Day 28,[1]; 3 wt %,93.8%
same,Purity at hr 0,[1]; 3 wt %,98.3%
same,Purity at Day 3,[1]; 5 wt %,98.2%
same,Purity at Day 7,[1]; 5 wt %,98.0%
same,Purity at Day 14,[1]; 5 wt %,97.6%
same,Purity at Day 21,[1]; 5 wt %,97.0%
same,Purity at Day 28,[1]; 5 wt %,96.3%
same,Purity at hr 0,[1]; 5 wt %,98.4%
same,Purity at Day 3,[1]; 7 wt %,98.4%
same,Purity at Day 7,[1]; 7 wt %,98.2%
same,Purity at Day 14,[1]; 7 wt %,98.0%
same,Purity at Day 21,[1]; 7 wt %,97.8%
same,Purity at Day 28,[1]; 7 wt %,97.4%
same,Purity at hr 0,[1]; 7 wt %,98.5%
same,Purity at Day 3,[1]; 8 wt %,98.4%
same,Purity at Day 7,[1]; 8 wt %,98.3%
same,Purity at Day 14,[1]; 8 wt %,98.0%
same,Purity at Day 21,[1]; 8 wt %,97.9%
same,Purity at Day 28,[1]; 8 wt %,97.5%
same,Purity at hr 0,[1]; 8 wt %,98.4%
same,Purity at Day 3,[1]; 10 wt %,98.4%
same,Purity at Day 7,[1]; 10 wt %,98.3%
same,Purity at Day 14,[1]; 10 wt %,98.2%
same,Purity at Day 21,[1]; 10 wt %,98.0%
same,Purity at Day 28,[1]; 10 wt %,97.5%
same,Purity at hr 0,[1]; 10 wt %,98.5%
same,Purity at Day 3,[1]; 15 wt %,98.4%
same,Purity at Day 7,[1]; 15 wt %,98.2%
same,Purity at Day 14,[1]; 15 wt %,98.1%
same,Purity at Day 21,[1]; 15 wt %,98.0%
same,Purity at Day 28,[1]; 15 wt %,97.6%
same,Purity at hr 0,[1]; 15 wt %,98.5%
same,Purity at Day 3,[1]; 20 wt %,98.4%
same,Purity at Day 7,[1]; 20 wt %,98.2%
same,Purity at Day 14,[1]; 20 wt %,98.2%
same,Purity at Day 21,[1]; 20 wt %,98.1%
same,Purity at Day 28,[1]; 20 wt %,97.5%
same,Purity at hr 0,[1]; 20 wt %,98.4%
same,Purity at Day 3,[1]; 30 wt %,98.4%
same,Purity at Day 7,[1]; 30 wt %,98.3%
same,Purity at Day 14,[1]; 30 wt %,98.1%
same,Purity at Day 21,[1]; 30 wt %,98.1%
same,Purity at Day 28,[1]; 30 wt %,97.5%
same,Purity at hr 0,[1]; 30 wt %,98.5%
same,Purity at Day 3,[1]; 50 wt %,98.5%
same,Purity at Day 7,[1]; 50 wt %,98.3%
same,Purity at Day 14,[1]; 50 wt %,98.1%
same,Purity at Day 21,[1]; 50 wt %,97.8%
same,Purity at Day 28,[1]; 50 wt %,97.6%
same,Purity at hr 0,[1]; 50 wt %,98.5%
same,Stability when the concentration is 0.1% or lower,[1],not stable
same,Stability of the solution at a temperature higher than 40° C. and a pH lower than 3 or greater than 6,[2],not stable
"CCN(CC)CCOC(=O)CCc1nc(-c2ccccc2)c(-c2ccccc2)o1.Cl [2-(diethylamino)ethyl 4,5-diphenyl-2-oxazolepropionate•HCl]",Purity at Day 3,[1]; 0.01 wt %,83.8%
same,Purity at Day 7,[1]; 0.01 wt %,73.9%
same,Purity at Day 14,[1]; 0.01 wt %,58.9%
same,Purity at Day 21,[1]; 0.01 wt %,47.6%
same,Purity at Day 28,[1]; 0.01 wt %,38.9%
same,Purity at hr 0,[1]; 0.01 wt %,97.8%
same,Purity at Day 3,[1]; 0.1 wt %,94.7%
same,Purity at Day 7,[1]; 0.1 wt %,90.6%
same,Purity at Day 14,[1]; 0.1 wt %,83.5%
same,Purity at Day 21,[1]; 0.1 wt %,75.7%
same,Purity at Day 28,[1]; 0.1 wt %,65.5%
same,Purity at hr 0,[1]; 0.1 wt %,97.9%
same,Purity at Day 3,[1]; 1 wt %,95.3%
same,Purity at Day 7,[1]; 1 wt %,92.9%
same,Purity at Day 14,[1]; 1 wt %,88.9%
same,Purity at Day 21,[1]; 1 wt %,84.6%
same,Purity at Day 28,[1]; 1 wt %,79.2%
same,Purity at hr 0,[1]; 1 wt %,98.0%
same,Purity at Day 3,[1]; 3 wt %,96.3%
same,Purity at Day 7,[1]; 3 wt %,95.1%
same,Purity at Day 14,[1]; 3 wt %,92.5%
same,Purity at Day 21,[1]; 3 wt %,89.0%
same,Purity at Day 28,[1]; 3 wt %,85.7%
same,Purity at hr 0,[1]; 3 wt %,98.4%
same,Purity at Day 3,[1]; 5 wt %,98.2%
same,Purity at Day 7,[1]; 5 wt %,97.8%
same,Purity at Day 14,[1]; 5 wt %,97.0%
same,Purity at Day 21,[1]; 5 wt %,96.3%
same,Purity at Day 28,[1]; 5 wt %,95.0%
same,Purity at hr 0,[1]; 5 wt %,98.5%
same,Purity at Day 3,[1]; 7 wt %,98.6%
same,Purity at Day 7,[1]; 7 wt %,98.2%
same,Purity at Day 14,[1]; 7 wt %,98.0%
same,Purity at Day 21,[1]; 7 wt %,97.7%
same,Purity at Day 28,[1]; 7 wt %,97.4%
same,Purity at hr 0,[1]; 7 wt %,98.8%
same,Purity at Day 3,[1]; 8 wt %,98.7%
same,Purity at Day 7,[1]; 8 wt %,98.3%
same,Purity at Day 14,[1]; 8 wt %,97.9%
same,Purity at Day 21,[1]; 8 wt %,97.7%
same,Purity at Day 28,[1]; 8 wt %,97.5%
same,Purity at hr 0,[1]; 8 wt %,98.7%
same,Purity at Day 3,[1]; 10 wt %,98.6%
same,Purity at Day 7,[1]; 10 wt %,98.5%
same,Purity at Day 14,[1]; 10 wt %,98.2%
same,Purity at Day 21,[1]; 10 wt %,97.8%
same,Purity at Day 28,[1]; 10 wt %,97.4%
same,Purity at hr 0,[1]; 10 wt %,98.8%
same,Purity at Day 3,[1]; 15 wt %,98.7%
same,Purity at Day 7,[1]; 15 wt %,98.4%
same,Purity at Day 14,[1]; 15 wt %,98.1%
same,Purity at Day 21,[1]; 15 wt %,97.9%
same,Purity at Day 28,[1]; 15 wt %,97.5%
same,Purity at hr 0,[1]; 15 wt %,98.8%
same,Purity at Day 3,[1]; 20 wt %,98.7%
same,Purity at Day 7,[1]; 20 wt %,98.5%
same,Purity at Day 14,[1]; 20 wt %,98.2%
same,Purity at Day 21,[1]; 20 wt %,97.8%
same,Purity at Day 28,[1]; 20 wt %,97.5%
same,Purity at hr 0,[1]; 20 wt %,98.7%
same,Purity at Day 3,[1]; 30 wt %,98.7%
same,Purity at Day 7,[1]; 30 wt %,98.5%
same,Purity at Day 14,[1]; 30 wt %,98.3%
same,Purity at Day 21,[1]; 30 wt %,97.9%
same,Purity at Day 28,[1]; 30 wt %,97.6%
same,Purity at hr 0,[1]; 30 wt %,98.8%
same,Purity at Day 3,[1]; 50 wt %,98.7%
same,Purity at Day 7,[1]; 50 wt %,98.5%
same,Purity at Day 14,[1]; 50 wt %,98.2%
same,Purity at Day 21,[1]; 50 wt %,97.8%
same,Purity at Day 28,[1]; 50 wt %,97.5%
same,Purity at hr 0,[1]; 50 wt %,98.8%
same,Stability when the concentration is 0.1% or lower,[1],not stable
same,Stability of the solution at a temperature higher than 40° C. and a pH lower than 3 or greater than 6,[2],not stable

# — patent publication US20230157952A1, “METHOD FOR IMPROVING THE STABILITY OF A PHARMACEUTICAL COMPOSITION COMPRISING A HIGH PENETRATION DRUG, AND THE PHARMACEUTICAL COMPOSITION OBTAINED THEREFROM” (Techfields Inc., priority 2020, published 2023)
